Measured values: the supplement of paper PMC5579334

How the values were obtained:
YST-1 = assay: relative IC50 (inflection point of fitted dose-response curve, CellTiter-Glo viability, 72 h; top asymptote may be below 50% inhibition); higher = less potent
How it was run: (§1)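 Viability of MPNST cell lines and primary human Schwann cells was read as CellTiter-Glo ATP luminescence after 72 h at 37 °C, 5% CO2, in 384-well plates seeded with 750–1000 cells per well. Each compound had been preprinted at five concentrations in 10-fold steps. Signals were scaled between vehicle and positive-control wells, duplicates averaged where present, and fitted with four-parameter logistic curves. Drug sensitivity score and relative IC50 (censored at the top concentration) come from those fits, and percent inhibition is taken at the top concentration.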

HS-Sch-2 = assay: as above
How it was run: as §1

HS-PSS [1] = assay: as above
How it was run: as §1

HS-PSS [2] = assay: relative IC50 (inflection point of fitted dose-response curve, CellTox-Green cytotoxicity, 72 h; top asymptote may be below 50%); higher = less potent
How it was run: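 MPNST cell lines and primary human Schwann cells were grown for 72 h at 37 °C in 384-well plates containing five 10-fold compound dilutions. CellTox-Green, added before seeding at a final 1:1000 dilution, gave fluorescence from DNA released by disrupted cells, and signals were scaled to vehicle and positive-control wells. Curves were fitted with a four-parameter logistic model. Drug sensitivity score and relative IC50 come from these fits, with IC50 censored at the top concentration.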

SMILES	relative IC50 (YST-1)	relative IC50 (HS-Sch-2)	relative IC50 (HS-PSS [1])	relative IC50 (HS-PSS [2])
COc1cccc2c1C(=O)c1c(O)c3c(c(O)c1C2=O)C[C@@](O)(/C(CO)=N/NC(=O)CCCCCN1C(=O)C=CC1=O)C[C@@H]3O[C@H]1C[C@H](N)[C@H](O)[C@H](C)O1 [Aldoxorubicin]	51.5 nM	105 nM	158 nM	181 nM
N[C@@H](Cc1ccc(N(CCCl)CCCl)cc1)C(=O)O [Melphalan]	> 12500 nM	> 12500 nM	> 12500 nM	> 12500 nM
Cc1nn(C)c(COc2ccc(N3CCN(S(=O)(=O)N(C)C)CC3)cc2)c1-c1cccc2c(CCCOc3cccc4ccccc34)c(C(=O)O)n(CCN3CCOCC3)c12	12700 nM	15400 nM	17800 nM	14900 nM
Cn1cc(-c2ccc3nnc(Sc4ccc5ncccc5c4)n3n2)cn1 [SGX-523]	> 5000 nM	> 5000 nM	> 5000 nM	> 5000 nM
CCN(CC)CCCC(C)Nc1c2ccc(Cl)cc2nc2ccc(OC)cc12 (stereo unspecified) [Mepacrine]	1790 nM	1440 nM	1440 nM	1580 nM
CCn1cc(-c2ccnc3[nH]c(-c4cccc(CN(C)C)c4)cc23)c(-c2ccc(NC(=O)N(C)C)cc2)n1	3.97 nM	157 nM	142 nM	> 1000 nM
O=C(Nc1cccc(Nc2ncc(Br)c(NCCc3cnc[nH]3)n2)c1)N1CCCC1 [BX-912]	867 nM	2750 nM	1930 nM	> 10000 nM
C=CC(=O)Nc1cccc(Nc2nc(Nc3ccc(N4CCN(C(C)=O)CC4)cc3OC)ncc2C(F)(F)F)c1 [Rociletinib]	1610 nM	2820 nM	3100 nM	2980 nM
CCN(CC)CCCC(C)Nc1ccnc2cc(Cl)ccc12 (stereo unspecified) [Chloroquine]	14700 nM	3750 nM	2730 nM	8350 nM
COc1ccc(-c2nc(N3CCOCC3)c3sc(CN(C)c4ncc(C(=O)NO)cn4)cc3n2)cn1 [CUDC-907]	3.12 nM	24.3 nM	20.7 nM	66.7 nM
N#Cc1ccc2[nH]c(O)c(-c3ccc(CN4CCOCC4)cn3)c2c1 [AZD-1080]	> 10000 nM	3630 nM	2380 nM	> 10000 nM
C[C@@H]1COC(Nc2ccc3ncnc(Nc4ccc(OCc5nccs5)c(Cl)c4)c3c2)=N1 [Varlitinib]	247 nM	1640 nM	821 nM	> 10000 nM
COc1cc(N2CCC(N3CCN(C)CC3)CC2)ccc1Nc1ncnc(Nc2ccccc2S(=O)(=O)C(C)C)n1 [ASP3026]	> 10000 nM	> 10000 nM	> 10000 nM	> 10000 nM
Cc1ccc(C(=O)Nc2ccc(Oc3cc4cnn(C)c4cc3-c3cn[nH]c3)c(F)c2)c(=O)n1-c1ccc(F)cc1 [Merestinib]	150 nM	371 nM	245 nM	> 1000 nM
CC(C)[C@H](C(=O)Nc1ccc(C(=O)NO)cc1)c1ccccc1 [AR-42]	270 nM	1150 nM	1060 nM	1920 nM
N[C@@H]1CCCN(c2c(/C=C3\SC(=O)NC3=O)cccc2-c2ccccc2)C1 [AZD1208]	204 nM	> 10000 nM	> 10000 nM	> 10000 nM
COc1cc(N2CCN(C)CC2)ccc1Nc1nccc(-c2cn(C)c3cnccc23)n1 [AZ191]	3400 nM	3350 nM	2610 nM	2460 nM
CC(C)c1cc(C(=O)N2Cc3ccc(CN4CCN(C)CC4)cc3C2)c(O)cc1O [Onalespib]	105 nM	37 nM	114 nM	62.7 nM
CCCCCCCCCCCCCCCCCCOP(=O)([O-])OC1CC[N+](C)(C)CC1 [Perifosine]	> 2500 nM	> 2500 nM	> 2500 nM	> 2500 nM
Cn1nccc1Nc1nccc(-c2ccn([C@H](CO)c3ccc(Cl)c(F)c3)c(=O)c2)n1 [GDC-0994]	4280 nM	2760 nM	> 10000 nM	> 10000 nM
CCn1c(=O)c(-c2ccc(Cl)cc2Cl)cc2cnc(Nc3ccc(N4CCNCC4)c(F)c3)nc21 [FRAX486]	> 5000 nM	133 nM	1750 nM	> 5000 nM
Cc1cc(Nc2cc(N3CCN(C)CC3)nc(/C=C/c3ccccc3)n2)n[nH]1 [ENMD-2076]	361 nM	763 nM	1060 nM	2290 nM
C[C@@H]1CN(CC(=O)Nc2ccc3c(c2)Cc2cccc(-c4cc(=O)cc(N5CCOCC5)o4)c2S3)C[C@H](C)O1	9260 nM	4240 nM	10100 nM	> 25000 nM
COc1cc(Br)c(Nc2nc(-c3c(C)nc4ncccn34)cs2)c(Br)c1 [PTC-209]	2580 nM	1410 nM	1670 nM	> 10000 nM
CC(C)Nc1cc(-c2c[nH]c(C(=O)N[C@H](CO)c3cccc(Cl)c3)c2)c(Cl)cn1 [Ulixertinib]	1380 nM	1290 nM	3530 nM	> 10000 nM
CCn1c(-c2nonc2N)nc2c(C#CC(C)(C)O)ncc(OC[C@H]3CCCNC3)c21	> 10000 nM	1620 nM	> 10000 nM	> 10000 nM
CN(C)C1CCN(C(=O)c2ccc(NC(=O)Nc3ccc(-c4nc(N5CCOCC5)nc(N5CCOCC5)n4)cc3)cc2)CC1 [Gedatolisib]	16.4 nM	47.2 nM	9.08 nM	> 1000 nM
FC(F)(F)c1ccc(/C=C/c2nc(COc3ccc(CCCCn4ccnn4)cc3)co2)cc1 [Mubritinib]	6.05 nM	19.7 nM	10.9 nM	> 1000 nM
NCC(=O)Nc1ccc(-n2nc(C(F)(F)F)cc2-c2ccc3c(ccc4ccccc43)c2)cc1	7970 nM	6000 nM	9140 nM	5040 nM
